Measurements published in patent publication US11566007B2, “Ras inhibitors” (Revolution Medicines, Inc., priority 2019, dated 2023).

Experiments:
NCI-H358 (K-Ras G12C) = experiment: CellTiter-Glo cell viability assay, NCI-H358; format: cell-based, human; conditions: Homo sapiens, NCI-H358, 120 h, NCI-H358, 5-day treatment; class symbols; read-out: Additional H358 Cell Viability assay data (K-Ras G12C, IC50)
Procedure, shortened: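 Four-parameter logistic fits were applied to luminescence data normalized against DMSO-treated wells. Readings were taken on day 5 following direct compound addition, after roughly 30 minutes at room temperature.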

K-Ras G13C = K-Ras G13C (Homo sapiens (Human), UniProt P01116+P62937, G13C); experiment: Ras-Raf (BRAF RBD) disruption / FRET / MOA assay, KRAS G13C; format: biochemical; conditions: KRAS G13C; Ras-Raf disruption/FRET/MOA assay; read-out: IC50* KRAS G13C FRET data
Procedure, shortened: (§1)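 Ternary complex formation (Ras–compound–cyclophilin A) displacing BRAF RBD, monitored by TR-FRET. Three hours at 25° C with compound (top 30 μM final), then 1.5 h with the labelled antibodies. Lower ratio than DMSO indicates disruption; IC50 reported.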

KRAS G12S = KRAS G12S (Homo sapiens (Human), UniProt P01116+P62937, G12S); experiment: Ras-Raf (BRAF RBD) disruption / FRET / MOA assay, KRAS G12S; format: biochemical; conditions: Ras-Raf disruption/FRET/MOA assay; class symbols; read-out: KRAS G12S FRET data IC50
Procedure, shortened: as §1

KRAS WT = KRAS WT (Homo sapiens (Human), UniProt P01116+P62937); experiment: Ras-Raf (BRAF RBD) disruption / FRET / MOA assay, KRAS WT; format: biochemical; conditions: read-out: IC50* KRAS WT FRET data
Procedure, shortened: as §1

KRAS Q61H = KRAS Q61H (Homo sapiens (Human), UniProt P01116+P62937, Q61H); experiment: Ras-Raf (BRAF RBD) disruption / FRET / MOA assay, KRAS Q61H; format: biochemical; conditions: Ras-Raf disruption/FRET/MOA assay; class symbols; read-out: KRAS Q61H FRET data IC50
Procedure, shortened: (§2)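 Compounds were tested as a 10-point 3-fold dilution series from 30 μM final for their ability to drive ternary complex formation between nucleotide-loaded Ras and cyclophilin A, displacing the BRAF RBD. After 3 h at 25° C., anti-His Eu-W1024 (10 nM) and anti-GST allophycocyanin (50 nM) were added for 1.5 h. A TR-FRET ratio decrease versus DMSO gave IC50.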

NRAS Q61R = NRAS Q61R (Homo sapiens (Human), UniProt P01111+P62937, Q61R); experiment: Ras-Raf (BRAF RBD) disruption / FRET / MOA assay, NRAS Q61R; format: biochemical; conditions: NRAS Q61R; Ras-Raf disruption/FRET/MOA assay; read-out: IC50* NRAS Q61R FRET data
Procedure, shortened: as §2

NRAS Q61K = NRAS Q61K (Homo sapiens (Human), UniProt P01111+P62937, Q61K); experiment: Ras-Raf (BRAF RBD) disruption / FRET / MOA assay, NRAS Q61K; format: biochemical; conditions: NRAS Q61K; Ras-Raf disruption/FRET/MOA assay; read-out: IC50* NRAS Q61K FRET data
Procedure, shortened: as §2

Sequence of KRAS WT (P01116-2 other isoform, or with tags, fused parts or gaps): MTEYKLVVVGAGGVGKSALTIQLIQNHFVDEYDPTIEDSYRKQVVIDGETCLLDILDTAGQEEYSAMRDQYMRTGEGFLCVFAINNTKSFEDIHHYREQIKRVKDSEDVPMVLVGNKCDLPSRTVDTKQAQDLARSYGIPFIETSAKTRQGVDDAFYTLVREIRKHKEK
Sequence of KRAS WT (P62937 whole entry): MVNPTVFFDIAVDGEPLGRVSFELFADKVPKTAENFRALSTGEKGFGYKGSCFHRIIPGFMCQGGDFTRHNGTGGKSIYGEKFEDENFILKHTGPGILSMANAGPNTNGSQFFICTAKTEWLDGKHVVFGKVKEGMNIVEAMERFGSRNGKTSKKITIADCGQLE
Sequence of K-Ras G13C (P01116-2 other isoform, or with tags, fused parts or gaps G13C): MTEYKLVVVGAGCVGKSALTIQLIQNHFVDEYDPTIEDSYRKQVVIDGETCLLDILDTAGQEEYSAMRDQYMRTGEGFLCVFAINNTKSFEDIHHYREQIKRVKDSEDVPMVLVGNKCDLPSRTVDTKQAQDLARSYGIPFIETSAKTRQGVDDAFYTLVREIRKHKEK
Sequence of K-Ras G13C (P62937 whole entry): as the sequence (P62937 whole entry) above
Sequence of NRAS Q61R (P01111 whole entry Q61R): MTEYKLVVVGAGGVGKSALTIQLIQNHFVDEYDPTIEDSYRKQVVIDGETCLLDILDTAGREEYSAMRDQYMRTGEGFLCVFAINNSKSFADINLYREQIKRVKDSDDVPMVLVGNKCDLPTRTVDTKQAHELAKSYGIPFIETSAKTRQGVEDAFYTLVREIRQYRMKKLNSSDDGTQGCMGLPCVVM
Sequence of NRAS Q61R (P62937 whole entry): as the sequence (P62937 whole entry) above
Sequence of KRAS Q61H (P01116-2 other isoform, or with tags, fused parts or gaps Q61H): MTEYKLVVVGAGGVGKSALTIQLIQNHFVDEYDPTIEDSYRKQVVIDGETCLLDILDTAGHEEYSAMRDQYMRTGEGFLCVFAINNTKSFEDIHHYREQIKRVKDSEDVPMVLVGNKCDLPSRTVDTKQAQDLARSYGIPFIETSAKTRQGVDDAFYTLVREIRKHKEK
Sequence of KRAS Q61H (P62937 whole entry): as the sequence (P62937 whole entry) above
Sequence of KRAS G12S (P01116-2 other isoform, or with tags, fused parts or gaps G12S): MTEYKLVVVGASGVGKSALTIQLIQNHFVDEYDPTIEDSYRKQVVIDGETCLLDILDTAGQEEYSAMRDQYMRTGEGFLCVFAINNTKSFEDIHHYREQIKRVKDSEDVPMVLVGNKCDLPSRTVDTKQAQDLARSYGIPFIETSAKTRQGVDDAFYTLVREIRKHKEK
Sequence of KRAS G12S (P62937 whole entry): as the sequence (P62937 whole entry) above
Sequence of NRAS Q61K (P01111 whole entry Q61K): as the sequence (P01111 whole entry Q61R) above, with R61K counted along it
Sequence of NRAS Q61K (P62937 whole entry): as the sequence (P62937 whole entry) above

## C=CC(=O)N1CC[C@H](N(C)C(=O)N(C)[C@H](C(=O)N[C@H]2Cc3nc(cs3)-c3ccc4c(c3)c(c(-c3cccnc3[C@H](C)OC)n4CC)CC(C)(C)COC(=O)[C@@H]3CCCN(N3)C2=O)C(C)C)C1 (atropisomer, axis not shown) [Example A728]
NCI-H358 (K-Ras G12C)
  IC50: 10 to 100 nM
K-Ras G13C
  IC50: 100 to 1000 nM
KRAS G12S
  IC50: 100 to 1000 nM
KRAS WT
  IC50: 100 to 1000 nM
KRAS Q61H
  IC50: 100 to 1000 nM
NRAS Q61R
  IC50: 100 to 1000 nM
NRAS Q61K
  IC50: 100 to 1000 nM

## C=CC(=O)N1CCN(C(=O)N(C)[C@H](C(=O)N[C@H]2Cc3nc(cs3)-c3ccc4c(c3)c(c(-c3cccnc3[C@H](C)OC)n4CC)CC(C)(C)COC(=O)[C@@H]3CCCN(N3)C2=O)C(C)C)[C@H]2CC[C@H]21 (atropisomer, axis not shown) [Example A734]
NCI-H358 (K-Ras G12C)
  IC50: 10 to 100 nM
K-Ras G13C
  IC50: 10 to 100 nM
KRAS G12S
  IC50: 10 to 100 nM
KRAS WT
  IC50: 10 to 100 nM
KRAS Q61H
  IC50: 10 to 100 nM
NRAS Q61R
  IC50: 10 to 100 nM
NRAS Q61K
  IC50: 10 to 100 nM

## C=CC(=O)N1CC2(C1)OCCCN2C(=O)N(C)[C@H](C(=O)N[C@H]1Cc2nc(cs2)-c2ccc3c(c2)c(c(-c2cccnc2[C@H](C)OC)n3CC)CC(C)(C)COC(=O)[C@@H]2CCCN(N2)C1=O)C(C)C (atropisomer, axis not shown) [Example A735, 2-acryloyl-N-((2S)-1-(((6^3S,4S,Z)-1^1-ethyl-1^2-(2-((S)-1-methoxyethyl)pyridin-3-yl)-10,10-dimethyl-5,7-dioxo-6^1,6^2,6^3,6^4,6^5,6^6-hexahydro-1^1H-8-oxa-2(4,2)-thiazola-1(5,3)-indola-6(1,3)-pyridazinacycloundecaphane-4-yl)amino)-3-methyl-1-oxobutan-2-yl)-N-methyl-5-oxa-2,9-diazaspiro[3.5]nonane-9-carboxamide]
NCI-H358 (K-Ras G12C)
  IC50: < 10 nM
K-Ras G13C
  IC50: 1000 to 10000 nM
KRAS G12S
  IC50: > 10000 nM
KRAS WT
  IC50: 1000 to 10000 nM
KRAS Q61H
  IC50: 1000 to 10000 nM
NRAS Q61R
  IC50: > 10000 nM
NRAS Q61K
  IC50: 1000 to 10000 nM

## C=CC(=O)N(C)[C@@H]1C[C@H]1N(C)C(=O)N(C)[C@H](C(=O)N[C@H]1Cc2nc(cs2)-c2ccc3c(c2)c(c(-c2cccnc2[C@H](C)OC)n3CC)CC(C)(C)COC(=O)[C@@H]2CCCN(N2)C1=O)C(C)C (atropisomer, axis not shown) [Example A739]
NCI-H358 (K-Ras G12C)
  IC50: 10 to 100 nM
K-Ras G13C
  IC50: 100 to 1000 nM
KRAS G12S
  IC50: 1000 to 10000 nM
KRAS WT
  IC50: 100 to 1000 nM
KRAS Q61H
  IC50: 10 to 100 nM
NRAS Q61R
  IC50: 1000 to 10000 nM
NRAS Q61K
  IC50: 10 to 100 nM

## C=CC(=O)N1CC[C@H](C(=O)N(C)[C@H](C(=O)N[C@H]2Cc3cccc(c3)-c3ccc4c(c3)c(c(-c3cnccc3[C@H](C)OC)n4CC)CC(C)(C)COC(=O)[C@@H]3CCCN(N3)C2=O)C(C)C)C1 (single isomer, unassigned) [Example A115]
NCI-H358 (K-Ras G12C)
  IC50: 10 to 100 nM
K-Ras G13C
  IC50: 1000 to 10000 nM
KRAS G12S
  IC50: 1000 to 10000 nM
KRAS WT
  IC50: 1000 to 10000 nM
KRAS Q61H
  IC50: 100 to 1000 nM
NRAS Q61R
  IC50: 1000 to 10000 nM
NRAS Q61K
  IC50: 1000 to 10000 nM

## C=CC(=O)N1CC[C@H](C(=O)N(C)[C@H](C(=O)N[C@H]2Cc3cc(O)cc(c3)-c3ccc4c(c3)c(c(-c3cc(N5CC(OC)C5)ccn3)n4CC)CC(C)(C)COC(=O)[C@@H]3CCCN(N3)C2=O)C(C)C)C1 [Example A104]
NCI-H358 (K-Ras G12C)
  IC50: < 10 nM
K-Ras G13C
  IC50: 1000 to 10000 nM
KRAS G12S
  IC50: 1000 to 10000 nM
KRAS WT
  IC50: 1000 to 10000 nM
KRAS Q61H
  IC50: 100 to 1000 nM
NRAS Q61R
  IC50: 1000 to 10000 nM
NRAS Q61K
  IC50: 1000 to 10000 nM

## C=CC(=O)N1CC[C@H](C(=O)N(C)[C@H](C(=O)N[C@H]2Cc3cc(O)cc(c3)-c3ccc4c(c3)c(c(-c3cc(C#N)cnc3COC)n4CC)CC(C)(C)COC(=O)[C@@H]3CCCN(N3)C2=O)C(C)C)C1 [Example A105]
NCI-H358 (K-Ras G12C)
  IC50: 10 to 100 nM
K-Ras G13C
  IC50: 100 to 1000 nM
KRAS G12S
  IC50: 100 to 1000 nM
KRAS WT
  IC50: 100 to 1000 nM
KRAS Q61H
  IC50: 10 to 100 nM
NRAS Q61R
  IC50: 100 to 1000 nM
NRAS Q61K
  IC50: 100 to 1000 nM

## C=CC(=O)N1CC[C@H](C(=O)N(C)[C@H](C(=O)N[C@H]2Cc3cc(O)cc(c3)-c3ccc4c(c3)c(c(-c3cn(C)cn3)n4CC)CC(C)(C)COC(=O)[C@@H]3CCCN(N3)C2=O)C(C)C)C1 [Example A113]
NCI-H358 (K-Ras G12C)
  IC50: 100 to 1000 nM
K-Ras G13C
  IC50: > 10000 nM
KRAS G12S
  IC50: 1000 to 10000 nM
KRAS WT
  IC50: > 10000 nM
KRAS Q61H
  IC50: 1000 to 10000 nM
NRAS Q61R
  IC50: > 10000 nM
NRAS Q61K
  IC50: > 10000 nM

## C=CS(=O)(=O)N1CC[C@H](C(=O)N(C)[C@H](C(=O)N[C@H]2Cc3cc(O)cc(c3)-c3ccc4c(c3)c(c(-c3cncnc3)n4CC)CC(C)(C)COC(=O)[C@@H]3CCCN(N3)C2=O)C(C)C)C1 [Example A172]
NCI-H358 (K-Ras G12C)
  IC50: 10 to 100 nM
K-Ras G13C
  IC50: 10 to 100 nM
KRAS G12S
  IC50: 1000 to 10000 nM
KRAS WT
  IC50: 1000 to 10000 nM
KRAS Q61H
  IC50: 100 to 1000 nM
NRAS Q61R
  IC50: > 10000 nM
NRAS Q61K
  IC50: 1000 to 10000 nM

## CCn1c(-c2cccnc2[C@H](C)OC)c2c3cc(ccc31)-c1cccc(c1)C[C@H](NC(=O)[C@H](C(C)C)N1CC[C@@]3(CCN(C(=O)C#C[C@@H]4COCCN4C4COC4)C3)C1=O)C(=O)N1CCC[C@H](N1)C(=O)OCC(C)(C)C2 [Example A566]
NCI-H358 (K-Ras G12C)
  IC50: < 10 nM
K-Ras G13C
  IC50: 100 to 1000 nM
KRAS G12S
  IC50: 1000 to 10000 nM
KRAS WT
  IC50: 1000 to 10000 nM
KRAS Q61H
  IC50: 100 to 1000 nM
NRAS Q61R
  IC50: 1000 to 10000 nM
NRAS Q61K
  IC50: 1000 to 10000 nM

## C=CC(=O)N1CCC2(C1)CN(C(=O)N(C)[C@H](C(=O)N[C@H]1Cc3nc(cs3)-c3ccc4c(c3)c(c(-c3cccnc3[C@H](C)OC)n4CC(F)(F)F)CC(C)(C)COC(=O)[C@@H]3CCCN(N3)C1=O)C(C)C)C2 [Example A603]
NCI-H358 (K-Ras G12C)
  IC50: 10 to 100 nM
K-Ras G13C
  IC50: 10 to 100 nM
KRAS G12S
  IC50: 100 to 1000 nM
KRAS WT
  IC50: 10 to 100 nM
KRAS Q61H
  IC50: 10 to 100 nM
NRAS Q61R
  IC50: 10 to 100 nM
NRAS Q61K
  IC50: 10 to 100 nM

## CCn1c(-c2cccnc2[C@H](C)OC)c2c3cc(ccc31)-c1cccc(c1)C[C@H](NC(=O)[C@H](C(C)C)N(C)C(=O)N1CCC13CN(C(=O)C#CC(C)(C)N(C)C)C3)C(=O)N1CCC[C@H](N1)C(=O)OCC(C)(C)C2 [Example A672]
NCI-H358 (K-Ras G12C)
  IC50: 10 to 100 nM
K-Ras G13C
  IC50: 100 to 1000 nM
KRAS G12S
  IC50: 100 to 1000 nM
KRAS WT
  IC50: 100 to 1000 nM
KRAS Q61H
  IC50: 10 to 100 nM
NRAS Q61R
  IC50: 100 to 1000 nM
NRAS Q61K
  IC50: 100 to 1000 nM

## C=CC(=O)N(C)[C@H]1CC1N(C)C(=O)N(C)[C@H](C(=O)N[C@H]1Cc2nc(cs2)-c2ccc3c(c2)c(c(-c2cccnc2[C@H](C)OC)n3CC)CC(C)(C)COC(=O)[C@@H]2CCCN(N2)C1=O)C(C)C (stereo partly shown) [Example A738]
NCI-H358 (K-Ras G12C)
  IC50: < 10 nM
K-Ras G13C
  IC50: 100 to 1000 nM
KRAS G12S
  IC50: 1000 to 10000 nM
KRAS WT
  IC50: 100 to 1000 nM
KRAS Q61H
  IC50: 100 to 1000 nM
NRAS Q61R
  IC50: 100 to 1000 nM
NRAS Q61K
  IC50: 100 to 1000 nM
